Results published in patent US20250388542A1, “ANALOGUES OF PENTAMIDINE AND USES THEREFOR” (Auransa Inc., priority 2018, published 2025).

Key:
NCI-H209 = experiment: CellTiter-Glo luminescent cell viability assay; assay type: cell-based; settings: Homo sapiens
Protocol: (§1) The objective of this study is to investigate potential cell killing effect of Compounds 1-15 on 3 cancer cell lines. 50% inhibition concentration (IC50) was determined for these compounds in various cancer cell lines using CellTiter-Glo™ luminescent cell viability assay at different compound concentrations. Each cell line (e.g., NCI-H209; NCI-H69; and SW1271) was treated with Compounds 1-15 and culture medium contains 0.2% [v/v] DMSO vehicle control. All the cells were cultured in the media supplemented with 10-20% fetal bovine serum at 37° C., 5% CO2 and 95% humidity.

NCI-H69 = experiment: CellTiter-Glo luminescent cell viability assay; assay type: cell-based; settings: Homo sapiens
Protocol: as §1

[1] = Pharmacokinetics in liver and tissues after oral administration; assay type: in vivo, mice
Protocol: Compound 1 (20 mg per kg), Compound 5 (10 mg per kg), and pentamidine (20 mg per kg) were tested for their PK. Tissue samples were collected as described above in Example 23. Briefly, blood samples (approximately […]) were collected under light isoflurane anesthesia from retro orbital plexus of mice at 0.5, 1, 3, 8, 48 and 72 hr. Plasma samples were separated by centrifugation at 2,000×g for 6 minutes and stored below −70±10° C. until bioanalysis. Immediately after collection of blood, animals were euthanized using excess CO2 asphyxiation and samples were collected from set of five mice at each time point. Collected tissue samples were immediately dipped and rinsed three times in ice cold PBS (for 5-10 seconds/rinse using ˜5-10 mL fresh PBS in disposable petri dish for each rinse) and dried on blotting paper. Tissue samples were homogenized using ice-cold phosphate buffer saline (pH7.4) and homogenates were stored below −70±10° C. until analysis. Total homogenate volume was three times the tissue weight except for liver samples, total homogenate volume was ten times the liver weight. Bioanalysis process was determined by fit-for-purpose LC-MS/MS method.
Calibration standards were prepared by spiking the test compound into blank plasma. 10 μL of working calibration standard was spiked into 190 μL of blank Mice Plasma or tissue homogenate to generate linearly spiked calibration standards. Calibrator concentrations were 5,000, 2,000, 1,000, 200, 100, 20, 10, 2 and 1 ng/mL. Calibration standard samples were processed along with the test samples. Twenty-five μL aliquots of plasma or tissue homogenate test samples were treated with 100 μL of acetonitrile containing internal standard (500 ng/mL Glipizide). Samples were vortexed for 5 minutes. Samples were centrifuged for 10 minutes at a speed of 4000 rpm at 4° C. Following centrifugation, 100 μL of clear supernatant was transferred in 96-well plates of and analyzed using LC-MS/MS. Chromatographic separation was achieved using a Kintex Polar column (C18, 100×4.6 mm, 5μ) and column oven temperature 45° C. For compound 1 diHCl the mobile phase A was water with 0.1% formic acid in Acetonitrile; mobile phase B was 10 mM ammonium formate. However, the mobile phase for pentamidine and Compound 5 mobile phase A was water with 0.1% formic acid and mobile phase B acetonitrile with 0.1% formic acid.
The gradient program for Compound 1 was as follows: 5% B (1-2.40 min), 90% B (2.60-3.00 min), and the initial for B was 90%. The retention rate was 1.47 per minute and the internal standard Glipizide was 1 per 9 minutes. The column was maintained at 45° C. For pentamidine and Compound 5, analysis was performed using 233 MassSpec by AB Sciex API5000 with Turbo Ion Spray interface operating in a positive ionization mode. Quantification was performed using multiple reaction monitoring (MRM) method with the transitions of (m/z) 328 à (m/z) 311 for Compound 5 and (m/z) 548 à (m/z) 366 for Edoxaban (internal standard). While, for pentamidine (m/z) 341 à (m/z) 324 and (m/z) 548 à (m/z) 366 for Verapmil (internal standard).
The gradient program for Compound 5 was as follows: 10% B (0-0.2 min), 95% B (1.5-2 min), the initial for B was 10% and it stopped at 2.6 mins. The flow rate was 0.5 mL/min. The gradient program for pentamidine was as follows: 10% B (0-0.2 min), 95% B (1.4-2 min), the initial for B was 10% and it stopped at 2.5 mins. The flow rate was 0.5 mL/min.

[2] = tested on: COLO 205-Luc colon cancer tumor cells; settings: mouse, in vivo
Protocol: Approximately 2.0× Luciferase stably expressing colon cancer tumor cells (COLO 205-Luc) cells suspended in 30 μl of DPBS were injected into cecum wall of BALB/c nude mice.
The animals were assigned into groups using an Excel-based randomization software performing stratified randomization based upon their bioluminescence intensity. Treatment was initiated according to the predetermined regimen as shown in the experimental design table.
Mice were administered compound 1 at 10 mg/k daily, 20 mg/kg daily, 10 mg/kg twice daily, 20 mg/kg twice daily, or 40 mg/kg daily.
The major efficacy endpoint was bioluminescence (intensity values and change from baseline). The surgically inoculated mice were weighed and intraperitoneally administered luciferin at a dose of 150 mg/kg. Ten minutes after the luciferin injection, the animals were pre-anesthetized with the mixture gas of oxygen and isoflurane. When the animals were in a complete anesthetic state, the mice were moved into the imaging chamber for bioluminescence measurements with an IVIS (Lumina II) imaging system. The bioluminescence of the whole animal body, including primary and metastatic tumors, was measured and recorded once per week.
Tumor Growth Inhibition (TGI) was calculated for each group using the formula: TGI (%)=[1−(Ti−T0)/(Vi−V0)]×100; Ti is the average tumor bioluminescence value of a treatment group on a given day, T0 is the average tumor bioluminescence value of the treatment group on day 0, Vi is the average tumor bioluminescence value of the vehicle control group on the same day with Ti, and V0 is the average tumor bioluminescence value of the vehicle group on day 0.
For comparison among three or more groups, a one-way ANOVA was performed. When a non-significant F-statistics (a ratio of treatment variance to the error variance) was obtained, comparisons between groups were carried out with Dunnett t(2-sided). All data were analyzed using SPSS 17.0. p<0.05 is considered to be statistically significant.

For N=C(N)c1ccc(OCCCCCOc2ccc(C(=N)N)nc2)cc1 [Compound 1, 5-(5-(4-carbamimidoylphenoxy)pentyloxy)picolinimidamide], which IC50 (NCI-H209) is on record?
Its IC50 is 1.7 µM.

What about the IC50 (NCI-H69) of the same compound?
The IC50 was 0.858 µM.

What about the “Cmax normalized to dose, liver, relative to pentamidine” value ([1]; 20 mpk p.o. both) of the same compound?
The value was about 7 folds.

And the “exposure to the liver vs pentamidine (20 mpk)” value ([1]; Compound 1 20 mpk, Compound 5 10 mpk, p.o.)?
The value was “greater exposure to the liver than pentamidine”.

And the half-life vs pentamidine ([1]; liver, p.o.)?
Its half-life vs pentamidine is “higher half-life than pentamidine”.

And the tissue exposure ([1]; liver, small intestine, ileum, p.o.)?
Its tissue exposure is “increased exposure in the liver as well as small intestine and ileum”.

What about the “exposure to the plasma” value ([1]; plasma vs other tissues, p.o.) of the same compound?
The value was “low in comparison to other tissues”.

What about the deaths and morbidity [2] of the same compound?
Its deaths and morbidity is “no deaths and no morbidity”.
